Assay results published in patent publication US20040242572A1 (Boehringer Ingelheim International GmbH, priority 2002, published 2004).

Test system: not given
Test: not given
Details: not given

melting point [°C] | SMILES
204 to 205 | O=c1c2ccc(-c3ccc(Cl)cc3)cc2ncn1CCc1ccc(CN2CCC(O)(c3ccccc3)CC2)cc1
265 to 266 | O=c1c2ccc(-c3ccc(Cl)cc3)cc2nnn1CCc1ccc(CN2CCC(O)(c3ccccc3)CC2)cc1
178 to 179 | O=c1c2ccc(-c3ccc(Cl)cc3)cc2ncn1CCc1ccc(CN2CCCC2)cc1 [Example 1.1, 7-(4-chloro-phenyl)-3-[2-(4-pyrrolidin-1-ylmethyl-phenyl)-ethyl]-3H-quinazolin-4-one]
157 to 158 | Cc1ccc(-c2ccc3c(=O)n(CCc4ccc(CN5CCCC5)cc4)cnc3c2)cc1 [Example 1.2, 3-[2-(4-Pyrrolidin-1-ylmethyl-phenyl)-ethyl]-7-p-tolyl-3H-quinazolin-4-one]
143 to 144 | COc1ccc(-c2ccc3c(=O)n(CCc4ccc(CN5CCCC5)cc4)cnc3c2)cc1 [Example 1.4, 7-(4-Methoxy-phenyl)-3-[2-(4-pyrrolidin-1-ylmethyl-phenyl)-ethyl]-3H-quinazolin-4-one]
160 to 161 | O=c1c2ccc(-c3ccc(F)cc3)cc2ncn1CCc1ccc(CN2CCCC2)cc1 [Example 1.7, 7-(4-fluoro-phenyl)-3-[2-(4-pyrrolidin-1-ylmethyl-phenyl)-ethyl]-3H-quinazolin-4-one]
165 to 166 | CCc1ccc(-c2ccc3c(=O)n(CCc4ccc(CN5CCCC5)cc4)cnc3c2)cc1 [Example 1.8, 7-(4-Ethyl-phenyl)-3-[2-(4-pyrrolidin-1-ylmethyl-phenyl)-ethyl]-3H-quinazolin-4-one]
169 to 170 | O=c1c2ccc(-c3ccc(Cl)cc3)cc2ncn1CCc1ccc(CN2CCCCC2)cc1 [Example 1.15, 7-(4-chloro-phenyl)-3-[2-(4-piperidin-1-ylmethyl-phenyl)-ethyl]-3H-quinazolin-4-one]
169 to 170 | O=c1c2ccc(-c3ccc(Cl)cc3)cc2ncn1CCc1ccc(CN2CCOCC2)cc1 [Example 1.16, 7-(4-chloro-phenyl)-3-[2-(4-morpholin-4-ylmethyl-phenyl)-ethyl]-3H-quinazolin-4-one]
178 to 179 | O=c1c2ccc(-c3ccc(Cl)cc3)cc2ncn1CCc1ccc(CN2CCC(c3ccccc3)CC2)cc1 [Example 1.21, 7-(4-chloro-phenyl)-3-{2-[4-(4-phenyl-piperidin-1-ylmethyl)-phenyl]-ethyl}-3H-quinazolin-4-one]
199 to 200 | O=c1c2ccc(-c3ccc(Cl)cc3)cc2ncn1CCc1ccc(CN2CCN(c3ccccc3)CC2)cc1 [Example 1.22, 7-(4-chloro-phenyl)-3-{2-[4-(4-phenyl-piperazin-1-ylmethyl)-phenyl]-ethyl}-3H-quinazolin-4-one]
166 to 167 | O=c1c2ccc(-c3ccc(Cl)cc3)cc2ncn1CCc1ccc(CN2CC=C(c3ccccc3)CC2)cc1 [Example 1.24, 7-(4-chloro-phenyl)-3-{2-[4-(4-phenyl-3.6-dihydro-2H-piperidin-1-ylmethyl)-phenyl]-ethyl}-3H-quinazolin-4-one]
184 to 185 | O=c1c2ccc(-c3ccc(Cl)cc3)cc2ncn1CCc1ccc(CN2CCC3(CCCCC3)CC2)cc1 [Example 1.25, 7-(4-chloro-phenyl)-3-{2-[4-(3-Aza-spiro[5.5]undec-3-ylmethyl)-phenyl]-ethyl}-3H-quinazolin-4-one]
154 to 158 | O=c1c2ccc(-c3ccc(Cl)cc3)cc2ncn1CCc1ccc(CN2CCC(Oc3ccccn3)CC2)cc1 [Example 1.26, 7-(4-chloro-phenyl)-3-(2-{4-[4-(pyridin-2-yloxy)-piperidin-1-ylmethyl]-phenyl}-ethyl)-3H-quinazolin-4-one]
164 to 166 | O=c1c2ccc(-c3ccc(Cl)cc3)cc2ncn1CCc1ccc(CN2CCC(Nc3ccccn3)CC2)cc1 [Example 1.27, 7-(4-chloro-phenyl)-3-(2-{4-[4-(pyridin-2-ylamino)-piperidin-1-ylmethyl]-phenyl}-ethyl)-3H-quinazolin-4-one]
183 to 184 | O=c1c2ccc(-c3ccc(Cl)cc3)cc2nnn1CCc1ccc(CN2CCC(c3ccccc3)CC2)cc1 [Example 1.28, 7-(4-chloro-phenyl)-3-{2-[4-(4-phenyl-piperidin-1-ylmethyl)-phenyl]-ethyl}-3H-benzo[d][1,2,3]triazin-4-one]
136 to 137 | O=c1c2ccc(-c3ccc(Cl)cc3)cc2ccn1CCc1ccc(CN2CCCC2)cc1 [Example 1.31, 6-(4-chloro-phenyl)-2-[2-(4-pyrrolidin-1-ylmethyl-phenyl)-ethyl]-2H-isoquinolin-1-one]

Second part, the compound before the results:

SMILES | melting point [°C]
O=c1c2ccc(-c3ccc(C(F)(F)F)cc3)cc2ncn1CCc1ccc(CN2CCCC2)cc1 [Example 1.3, 3-[2-(4-pyrrolidin-1-ylmethyl-phenyl)-ethyl]-7-(4-trifluormethyl-phenyl)-3H-quinazolin-4-one] | 179 to 181
O=c1c2ccc(-c3ccc(Cl)c(Cl)c3)cc2ncn1CCc1ccc(CN2CCCC2)cc1 [Example 1.5, 7-(3,4-dichloro-phenyl)-3-[2-(4-pyrrolidin-1-ylmethyl-phenyl)-ethyl]-3H-quinazolin-4-one] | 148 to 149
Cc1nc2cc(-c3ccc(Cl)cc3)ccc2c(=O)n1CCc1ccc(CN2CCCC2)cc1 [Example 1.11, 7-(4-chloro-phenyl)-2-methyl-3-[2-(4-pyrrolidin-1-ylmethyl-phenyl)-ethyl]-3H-quinazolin-4-one] | 160 to 163
O=c1[nH]c2cc(-c3ccc(Cl)cc3)ccc2c(=O)n1CCc1ccc(CN2CCCC2)cc1 [Example 1.12, 7-(4-chloro-phenyl)-3-[2-(4-pyrrolidin-1-ylmethyl-phenyl)-ethyl]-1H-quinazolin-2,4-dione] | 274 to 276
COC[C@@H]1CCCN1Cc1ccc(CCn2cnc3cc(-c4ccc(Cl)cc4)ccc3c2=O)cc1 [Example 1.13, 7-(4-chloro-phenyl)-3-{2-[4-((S)-2-methoxymethyl-pyrrolidin-1-ylmethyl)-phenyl]-ethyl}-3H-quinazolin-4-one] | 133 to 135
CN(C)Cc1ccc(CCn2cnc3cc(-c4ccc(Cl)cc4)ccc3c2=O)cc1 [Example 1.14, 7-(4-chloro-phenyl)-3-[2-(4-dimethylaminomethyl-phenyl)-ethyl]-3H-quinazolin-4-one] | 183
CN1CCN(c2ccc(CCn3cnc4cc(-c5ccc(Cl)cc5)ccc4c3=O)cn2)CC1 [Example 1.17, 7-(4-chloro-phenyl)-3-{2-[6-(4-methyl-piperazin-1-yl)-pyridin-3-yl]-ethyl}-3H-quinazolin-4-one] | 263 to 264
O=c1c2ccc(-c3ccc(Cl)cc3)cc2nnn1CCc1ccc(CN2CCCC2)cc1 [Example 1.18, 7-(4-chloro-phenyl)-3-[2-(4-pyrrolidin-1-ylmethyl-phenyl)-ethyl]-3H-benzo[d][1,2,3]triazin-4-one] | 151 to 152
O=c1c2ccc(-c3ccc(Cl)cc3)cc2nnn1Cc1ccc(CN2CCCC2)cc1 [Example 1.19, 7-(4-chloro-phenyl)-3-(4-pyrrolidin-1-ylmethyl-benzyl)-3H-benzo[d][1,2,3]triazin-4-one] | 147 to 148
O=c1c2ccc(-c3ccc(Cl)cc3)cc2nnn1CCc1ccc(CN2CCC3(CCCCC3)CC2)cc1 [Example 1.30, 7-(4-chloro-phenyl)-3-{2-[4-(3-aza-spiro[5.5]undec-3-ylmethyl)-phenyl]-ethyl}-3H-benzo[d][1,2,3]triazin-4-one] | 165 to 166
CN1CCN(c2ccc(CCNC(=O)c3ccc(-c4ccc(Cl)cc4)cc3)cn2)CC1 [Example 2.50, 4′-chloro-biphenyl-4-carboxylic acid-{2-[6-(4-methyl-piperazin-1-yl)-pyridin-3-yl]-ethyl}-amide] | 211 to 213
CN1CCN(C(=O)c2ccc(CCNC(=O)c3ccc(-c4ccc(Cl)cc4)cc3)cc2)CC1 [Example 2.51, 4′-chloro-biphenyl-4-carboxylic acid-{2-[4-(4-methyl-piperazine-1-carbonyl)-phenyl]-ethyl}-amide] | 217 to 218

Biological target: T1, hMCH-1R (Homo sapiens, UniProt Q99705)
T1 construct: expressed in transfected cells; host or cells: CHO/Galpha16 cells, stably transfected; membrane preparation
T1 sequence (Q99705 whole entry): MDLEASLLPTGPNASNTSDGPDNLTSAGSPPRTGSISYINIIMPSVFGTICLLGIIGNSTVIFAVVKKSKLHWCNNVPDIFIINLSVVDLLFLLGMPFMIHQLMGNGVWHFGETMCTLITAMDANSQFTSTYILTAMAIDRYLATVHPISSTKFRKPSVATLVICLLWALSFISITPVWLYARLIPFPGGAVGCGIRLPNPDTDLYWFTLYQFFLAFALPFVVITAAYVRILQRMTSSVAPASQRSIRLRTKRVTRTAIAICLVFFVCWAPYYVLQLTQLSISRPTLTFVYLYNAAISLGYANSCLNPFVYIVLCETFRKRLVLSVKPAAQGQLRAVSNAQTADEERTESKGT
Test: MCH-1 receptor binding test (125I-MCH binding to membranes of hMCH-1R transfected CHO/Galpha16 cells)
Details: 100 pM 125I-MCH, membranes of CHO/Galpha16 cells with hMCH-1R
Experimental: Membranes from CHO/Galpha16 cells stably transfected with human hMCH-1R are resuspended using a syringe (needle 0.6×25 mm) and diluted in test buffer (50 mM HEPES, 10 mM MgCl2, 2 mM EGTA, pH 7.00; 0.1% bovine serum albumin (protease-free), 0.021% bacitracin, 1 μg/ml aprotinin, 1 μg/ml leupeptin and 1 μM phosphoramidone) to a concentration of 5 to 15 μg/ml. […] After the incubation the reaction is filtered using a cell harvester through 0.5% PEI treated glass fibre filters (GF/B, Unifilter Packard). The membrane-bound radioactivity retained on the filter is then determined after the addition of scintillator substance (Packard Microscint 20) in a measuring device (TopCount of Packard).
The non-specific binding is defined as bound radioactivity in the presence of 1 micromolar MCH during the incubation period.
The analysis of the concentration binding curve is carried out on the assumption of one receptor binding site.

IC50 [nM] | SMILES
2.1 | CN(C)Cc1ccc(CCn2cnc3cc(-c4ccc(Cl)cc4)ccc3c2=O)cc1 [Example 1.14, 7-(4-chloro-phenyl)-3-[2-(4-dimethylaminomethyl-phenyl)-ethyl]-3H-quinazolin-4-one]
3.5 | CCN(CC)Cc1ccc(CCNC(=O)c2ccc(-c3ccc(OC)cc3)cc2)cc1 [Example 2.4, 4′-methoxy-biphenyl-4-carboxylic acid-[2-(4-diethylaminomethyl-phenyl)-ethyl]-amide]
30.5 | Cc1ccc(C2CCN(C(=O)NCCc3ccc(CN4CCCC4)cc3)CC2)cc1 [Example 2.12, 4-methylphenyl-piperidine-1-carboxylic acid-[2-(4-pyrrolidin-1-ylmethyl-phenyl)-ethyl]-amide]
